US11213506B2, “Combination therapy for the treatment or prevention of tumours” (QBIOTICS PTY LTD, priority 2017, dated 2022)

Assays:
[1] = tested on: A431 cells; test: IncuCyte cytotoxicity assay (propidium iodide); assay type: cell-based, human; settings: 500 μM; for propidium iodide staining (loss of plasma membrane integrity): after 120 minutes, majority of cells; for cell morphology (cytoplasmic swelling, blistering): differing extents and kinetics of onset
Procedure: (§1) A431 (human epidermoid carcinoma), MM649 (human melanoma), B16-OVA (B16-F10 mouse melanoma cell line stably transfected with chicken ovalbumin), MM415 (human melanoma) and FaDu (human hypopharyngeal carcinoma) cells were cultured in RPMI-1640, 10% FCS (complete medium) at 37° C., 5% CO2 in a humidified incubator. All cell lines used in this study were confirmed as mycoplasma negative using MycoAlert (Lonza). STR profiling was also performed to confirm the identity of the human cell lines used.
(§2) Four cancer cell lines (A431, MM649 (human melanoma), FaDu (HNSCC) and MM415 (human melanoma) were assessed for their response to epoxytigliane treatment. Cells were plated at a density of 10,000 cells per well (100 μl of complete media) into clear bottom black 96-well plates (Corning, #3603). Following 24 h incubation, the media within each well was aspirated and replaced with 50 μl of fresh media containing 1 μg/ml propidium iodide (PI). Stock solutions (20 mg/ml in ethanol) of four epoxytiglianes (Compounds 1, 2, 3 and 4) were diluted to 2× final assay concentration (1 mM) in identical media and inserted into a U-bottom 96 well plate in preparation for transfer. 50 μl of dilution was added to the required wells and the resultant plates inserted into an Essen Biosciences IncuCyte in preparation for imaging. Images were acquired at various time points (30 min, 1 h and at hourly intervals) for a total of 24 h.

[2] = tested on: FaDu cells; test: IncuCyte cytotoxicity assay (propidium iodide); assay type: cell-based, human; settings: 500 μM; for propidium iodide staining (loss of plasma membrane integrity): after 120 minutes, majority of cells; for cell morphology (cytoplasmic swelling, blistering): differing extents and kinetics of onset
Procedure: as §1, §2

[3] = tested on: MM415 cells; test: IncuCyte cytotoxicity assay (propidium iodide); assay type: cell-based, human; settings: 500 μM; for propidium iodide staining (loss of plasma membrane integrity): after 120 minutes, majority of cells; for cell morphology (cytoplasmic swelling, blistering): differing extents and kinetics of onset
Procedure: as §1, §2

[4] = tested on: MM649 cells; test: IncuCyte cytotoxicity assay (propidium iodide); assay type: cell-based, human; settings: 500 μM; for propidium iodide staining (loss of plasma membrane integrity): after 120 minutes, majority of cells; for cell morphology (cytoplasmic swelling, blistering): differing extents and kinetics of onset
Procedure: as §1, §2

[5] = tested on: A431 cells; test: ATP release assay; assay type: cell-based, human; settings: both concentrations (500 and 300 μM), within 60 minutes
Procedure: (§3) A431 (human epidermoid carcinoma), MM649 (human melanoma) and B16-OVA (B16-F10 mouse melanoma cell line stably transfected with chicken ovalbumin) were cultured in RPMI-1640, 10% FCS (complete medium) at 37° C., 5% CO2 in a humidified incubator. BMDCs were cultured in R10 media (RPMI, 10% FCS, 2 mM glutamine, 50 μM beta-mercaptoethanol, Pen/Strep). All cell lines used in this study were confirmed as mycoplasma negative using MycoAlert (Lonza). STR profiling was also performed to confirm the identity of the human cell lines used.
(§4) Cell lines were plated at a density of 10,000 cells per well into clear 96-well plates (Corning, #3595; 100 μl of complete media) and the resultant plates incubated overnight as previously detailed. The following day, media was aspirated from each well and 50 μl of fresh medium was inserted. Stock solutions of Compounds 1, 2, 3 and 4 were diluted to 2× final assay concentration (1 mM and 600 μM) and 50 μl of these dilutions added to the required wells. Ethanol only control solutions were also compiled and administered. At the indicated timepoints, 80 μl of media was removed, centrifuged at 1,200 rpm for 4 mins to pellet cell debris and 50 μl assayed for ATP using a bioluminescence based ATP assay kit (FLAA, Sigma-Aldrich). Relative luminescence units were recorded for each sample using a Hybrid Synergy H4 plate reader (BioTek).

[6] = tested on: MM649 cells; test: ATP release assay; assay type: cell-based, human; settings: both concentrations (500 and 300 μM), within 60 minutes
Procedure: as §3, §4

[7] = tested on: B16-OVA cells; test: ATP release assay; assay type: cell-based, mouse; settings: both concentrations (500 and 300 μM), within 60 minutes
Procedure: as §3, §4

[8] = tested on: CD11c+ BMDCs with B16-OVA cells; test: BMDC uptake of epoxytigliane treated B16-OVA cells; assay type: cell-based, C57Bl/6 mice; settings: B16-OVA treated at 500 or 300 μM for 30 and 60 mins; 4 h co-culture
Procedure: The tibias and […] from four 7-8 week old C57Bl/6 mice were first surgically removed under sterile conditions. The marrow was flushed from the bone cavity with 10 ml of ice cold R10 media (using a 27G needle/syringe into a 50 ml polypropylene tube). Cells were pelleted at 1,500 rpm for 5 mins and washed ×2 with ice cold R10 media. After resuspension of the pellet into 10 ml of ice cold R10 medium, cells were counted using an improved haemocytometer and plated at a density of 2×10^6 cells per plate (petri dish) in 10 ml of R10 supplemented with 20 ng/ml murine GM-CSF. All plates were incubated at 37° C., 5% CO2 and at day 3 an additional 10 ml R10 with 20 ng/ml GM-CSF was added. Cells were again fed at day 6 and used for downstream assays on day 7.
Prior to co-incubation with BMDCs, B16-OVA cells were trypsinised, centrifuged at 1,200 rpm for 4 mins to pellet cells and washed ×2 with complete medium. Cells were then stained with 2 μM Cell Tracker Green in complete medium for 45 mins, after which they were pelleted and washed ×2 as above. Labelled B16-OVA cells were subsequently treated with Compounds 1, 2, 3 and 4 at two concentrations (500 or 300 μM) in media at a density of 1×10^6 cells/ml for 30 and 60 mins, after which cells were pelleted via centrifugation, supernatant removed via aspiration and the cell pellet washed ×1 with complete media. After the wash, the treated cells were resuspended in R10 media, inserted into the wells of a 6-well plate (Corning, #3471. Ultra low attachment surface) and BMDCs added. Co-cultures were incubated for 4 h after which cell suspensions were transferred to a microfuge tube and centrifuged at 1,500 rpm for 5 mins. Pellets were resuspended in 100 μl FACs buffer containing anti-CD11c-APC and incubated for 10 mins at 4° C. Cells were again pelleted, washed ×1 with FACs buffer and then fixed using PBS, 1% formaldehyde for 10 mins. After centrifugation and removal of the supernatant, cells were resuspended in 500 μl FACs buffer in preparation for flow cytometry.
Samples were first gated by FSC-H v FSC-A, then SSC-H v SS-A to identify single cells. The proportion of CD11c^+ cells (Ex: 640 nm, Em: 670/14) with CMFDAmid (Ex: 488 nm, Em: 530/30) were then determined for treated and untreated cells as a percentage of all CD11c^+ cells.

Row | SMILES | propidium iodide staining (loss of plasma membrane integrity) [1] | cell morphology (cytoplasmic swelling, blistering) [1] | propidium iodide staining (loss of plasma membrane integrity) [2] | cell morphology (cytoplasmic swelling, blistering) [2] | propidium iodide staining (loss of plasma membrane integrity) [3] | cell morphology (cytoplasmic swelling, blistering) [3] | propidium iodide staining (loss of plasma membrane integrity) [4] | cell morphology (cytoplasmic swelling, blistering) [4] | ATP release [5] | ATP release [6] | ATP release [7] | uptake of dying cancer cell fragments by CD11c+ dendritic cells/macrophages (BMDCs) [8]
1 | CCC(C)C(=O)OC1C(C)C2(O)C(C3OC3(CO)C(O)C3(O)C(=O)C(C)=CC32)C2C(C)(C)C12OC(=O)C(C)CC (stereo not drawn) [Compound 2, 12,13-di-(2-methylbutanoyl)-6,7-epoxy-4,5,9,12,13,20-hexahydroxy-1-tiglien-3-one] | strong red staining | significant cytoplasmic swelling and ‘blistering’ | strong red staining | significant cytoplasmic swelling and ‘blistering’ | strong red staining | significant cytoplasmic swelling and ‘blistering’ | strong red staining | significant cytoplasmic swelling and ‘blistering’ | significant release of ATP | significant release of ATP | significant release of ATP | promotes uptake
2 | CCCCCC(=O)OC1C(C)C2(O)C(C3OC3(CO)C(O)C3(O)C(=O)C(C)=CC32)C2C(C)(C)C12OC(=O)C(C)CC (stereo not drawn) [Compound 3, 12-hexanoyl-13-(2-methylbutanoyl)-6,7-epoxy-4,5,9,12,13,20-hexahydroxy-1-tiglien-3-one] | strong red staining | significant cytoplasmic swelling and ‘blistering’ | strong red staining | significant cytoplasmic swelling and ‘blistering’ | strong red staining | significant cytoplasmic swelling and ‘blistering’ | strong red staining | significant cytoplasmic swelling and ‘blistering’ | significant release of ATP | significant release of ATP | significant release of ATP | promotes uptake
3 | CCCCCC(=O)OC1C(C)C2(O)C(C3OC3(CO)C(O)C3(O)C(=O)C(C)=CC32)C2C(C)(C)C12OC(=O)CCCCC (stereo not drawn) [Compound 4, 12,13-dihexanoyl-6,7-epoxy-4,5,9,12,13,20-hexahydroxy-1-tiglien-3-one] | strong red staining | significant cytoplasmic swelling and ‘blistering’ | strong red staining | significant cytoplasmic swelling and ‘blistering’ | strong red staining | significant cytoplasmic swelling and ‘blistering’ | strong red staining | significant cytoplasmic swelling and ‘blistering’ | significant release of ATP | significant release of ATP | significant release of ATP | promotes uptake
